Laboratory results from patent publication EP1243581A1, “Pyridinium compounds useful for the treatment of AGE-related diseases” (Torrent Pharmaceuticals Ltd, priority 2001, dated 2002).

Biological target: T1, AGE-BSA (Bos taurus, UniProt P02769)
T1 construct: Bovine serum albumin (fraction V) (BSA); from tissue; host or cells: bovine serum (fraction V albumin)
Experiment: In-vitro screening for AGE-breaking activity (ELISA on 16 weeks AGE-BSA)
Format: biochemical, bovine
Details: Concentration 1 mM; 10µg/ml 16 weeks AGE-BSA, 37°C, 24 hours
Description: • Materials: • Bovine serum albumin (fraction V) (BSA) • Glucose, analytical grade • Phosphate buffered saline (PBS) • Equipment: • Microplate ELISA Reader - Spectramax Plus (Molecular Devices, USA) • Microplate washer, (Bio -Tec Instruments, USA) • pH meter Methods of experiment: Elisa (Enzyme Linked Immunosorbent Assay) 160 mg/ml of protein, bovine serum albumin, BSA and 1.6M glucose sugar were dissolved in phosphate buffered saline, PBS. Sodium azide was added at 0.02% concentration as a preservative. The solution was filtered asceptically through a 0.22 µM filter and kept for aging at 37°C for 16 weeks. After 16 weeks the solution was dialyzed against PBS, aliquoted and stored at - 20°C.
To determine the AGE breaking activity, 10µg/ml of the 16 weeks AGE-BSA was incubated with different concentrations of the test compounds at 37°C for 24 hours and AGE breaking activity of the test compounds by ELISA was determined. […] Different concentrations of 16 weeks AGE-BSA were coated on a microtitre plate as standard. Each concentration is coated in triplicates. • 2. The test samples were coated on microtitre plate at a concentration of 5 ng. to 20 ng per well in triplicates. • 3. The plate was incubated at 37°C for one hour. • 4. After incubation the plate was washed with PBST (PBS with 0.05% Tween 20). • 5. Blocking with 5% skimmed milk in PBS at 37°C for one hour was done. • 6. The plate was washed with PBST. • 7. Primary antibody against AGE-BSA was added and the plate is incubated at 37°C for one hour. • 8. The plate was washed with PBST • 9. Secondary antibody anti rabbit HRPO (Horse-Radish Per Oxidase) conjugate was added and the plate is incubated at 37°C for one hour. • 10. The plate was washed with PBST. • 11. Colour development with OPD (orthophenylenediamine dihydrochloride) and hydrogen peroxide was done. • 12. OD (optical density) at (450nm reading - 620nm reading) was measured after incubation at 37°C for 15 minutes with Microplate ELISA Reader.
The breaker activity of the compounds were determined by the following formula: % Breaker activity =(OD450-620 Control - OD450-620 Test)/(OD450-620 Control)x 100 [formula]

T1 sequence (P02769 25-607): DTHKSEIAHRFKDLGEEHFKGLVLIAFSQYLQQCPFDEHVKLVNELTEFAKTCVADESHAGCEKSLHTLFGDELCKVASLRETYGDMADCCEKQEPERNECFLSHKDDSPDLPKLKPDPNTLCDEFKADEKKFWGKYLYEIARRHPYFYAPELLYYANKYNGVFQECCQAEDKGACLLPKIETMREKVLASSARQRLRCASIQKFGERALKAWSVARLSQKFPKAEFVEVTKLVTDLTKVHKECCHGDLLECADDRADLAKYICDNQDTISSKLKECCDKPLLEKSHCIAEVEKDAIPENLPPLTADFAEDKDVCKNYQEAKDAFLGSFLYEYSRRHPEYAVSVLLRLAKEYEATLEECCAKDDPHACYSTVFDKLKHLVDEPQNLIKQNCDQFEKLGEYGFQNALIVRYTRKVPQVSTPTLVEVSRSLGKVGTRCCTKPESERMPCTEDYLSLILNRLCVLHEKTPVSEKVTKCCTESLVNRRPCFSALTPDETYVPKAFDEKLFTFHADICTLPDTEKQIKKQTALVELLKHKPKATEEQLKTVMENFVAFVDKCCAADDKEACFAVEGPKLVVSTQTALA

| % breakage of AGE-BSA crosslinks at 1000 µM [%] | SMILES |
| --- | --- |
| 77.7 | Cc1ccc(C(=O)NNS(C)(=O)=O)c[n+]1CC(=O)c1cccs1 [Compound 39, 1-(2-thien-2'-yl-2-oxoethyl)-3-(methanesulfonyl hydrazinocarbonyl) -6-methyl pyridinium bromide] |
| 95.4 | NC(=O)c1cc(C(=O)NNC(=O)c2ccc[n+](CC(=O)c3cccs3)c2)c[n+](CC(=O)c2cccs2)c1 [Compound 42, 1-[1-(2-thien-2'-yl-2-oxoethyl)-5-aminocarbonyl-3-carbonylpyridinium]-2-[1-(2-Thien-2'-yl-2-oxoethyl)-3-carbonylpyridinium] hydrazine dichloride] |
| 42 | CS(=O)(=O)NNC(=O)c1ccc[n+](CC(=O)c2ccc([N+](=O)[O-])s2)c1 [Compound 49, 1-2-(5-nitro-thien-2-yl)-2-oxoethyl)-3-(methanesulfonyl hydrazino carbonyl) pyridinium chloride] |

Same assay, conditions: Concentration 2.5 mM; 10µg/ml 16 weeks AGE-BSA, 37°C, 24 hours

| % breakage of AGE-BSA crosslinks at 2500 µM [%] | SMILES |
| --- | --- |
| 85.7 | Cc1ccc(C(=O)NNC(=O)c2ccc[n+](CC(=O)c3cccs3)c2)c[n+]1CC(=O)c1cccs1 [Compound 31, 1-[1-(2-thien-2'-yl-2-oxoethyl)-6-methyl-3-carbonylpyridinium]-2-[1-(2-Thien-2'-yl-2-oxoethyl)-3-carbonylpyridinium] hydrazine dichloride] |
| 29.4 | CS(=O)(=O)NNC(=O)c1cc(Br)c[n+](CC(=O)c2cccs2)c1 [Compound 35, 1-(2-thien-2'-yl-2-oxoethyl)-3-(methanesulfonyl hydrazinocarbonyl)-5-bromo pyridinium bromide] |

Same assay, conditions: Concentration 10 mM; 10µg/ml 16 weeks AGE-BSA, 37°C, 24 hours

| % breakage of AGE-BSA crosslinks at 10000 µM [%] | SMILES |
| --- | --- |
| 13 | COCCOC(=O)c1ccc[n+](CC(=O)c2ccc(Cl)cc2Cl)c1 [Compound 4, 1-(2-(2',4'-dichlorophenyl)-2-oxoethyl)-3-(2(methoxy)ethyloxycarbonyl) pyridinium bromide] |
| 37 | O=C(C[n+]1cccc(C(=O)NCCOC(=O)c2ccccc2)c1)Nc1ccccc1 [Compound 5, 1-(2-phenylamino-2-oxoethyl)-3-((benzoyloxy)ethylaminocarbonyl) pyridinium chloride] |
| 14 | O=C(NNC(=O)c1ccc[n+](CC(=O)c2ccco2)c1)c1ccc[n+](CC(=O)c2ccco2)c1 [Compound 14, N, N' - bis [3-carbonyl-1-(2-furan-2'-yl-2-oxoethyl)pyridinium] hydrazine dibromide] |
| 12.5 | O=C(NNC(=O)c1cccnc1Cl)c1ccc[n+](CC(=O)c2cccs2)c1 [Compound 24, 1-(2-thien-2'yl-2-oxoethyl)-3-(2-(2-chloro-3-pyridoylhydrazinocarbonyl) -pyridinium chloride] |
| 17.5 | CS(=O)(=O)NNC(=O)c1ccc[n+](CC(=O)c2cccs2)c1 [Compound 27, 1-(2-thien-2'-yl-2-oxoethyl)-3-(methanesulfonyl hydrazinocarbonyl) pyridinium chloride] |
| 32.4 | COCCNC(=O)c1cc(Br)c[n+](CC(=O)c2cccs2)c1 [Compound 29, 1-(2-thien-2'-yl-2-oxoethyl)-3-((2-methoxyethyl)aminocarbonyl)-5-bromo pyridinium chloride] |
| 31.4 | CC(C)S(=O)(=O)NNC(=O)c1ccc[n+](CC(=O)c2cccs2)c1 [Compound 32, 1-(2-thien-2'-yl-2-oxoethyl)-3-(isopropylsulfonyl hydrazinocarbonyl) pyridinium bromide] |
| 33.4 | CCOC(=O)NNC(=O)c1ccc[n+](CC(=O)c2cccs2)c1 [Compound 36, 1-(2-thien-2'-yl-2-oxoethyl)-3-(ethoxycarbonyl hydrazinocarbonyl) pyridinium bromide] |
| 82 | Cc1ccc(C(=O)C[n+]2cccc(C(=O)NNC(=O)c3ccc[n+](CC(=O)c4ccc(C)s4)c3)c2)s1 [Compound 40, N,N'-bis[3-carbonyl-1-(2-(5-methyl-thien-2-yl)-2-oxoethyl)pyridinium] hydrazine dichloride] |
| 20.3 | CCOC(=O)C1CCCN1C(=O)C[n+]1cccc(C(=O)NNC(=O)c2ccc[n+](CC(=O)N3CCCC3C(=O)OCC)c2)c1 (stereo not drawn) [Compound 41, N,N'-bis[3-carbonyl-1-(2-(2-ethoxycarbonylpyrrolidin-1-yl)-2-oxoethyl)pyridinium] hydrazine dichloride] |
| 78.4 | O=C(NNC(=O)c1ccc[n+](CC(=O)c2ccc(Cl)s2)c1)c1ccc[n+](CC(=O)c2ccc(Cl)s2)c1 [Compound 44, N,N'-bis[3-carbonyl-1-(2-(5-chloro-thien-2-yl)-2-oxoethyl)pyridinium] hydrazine dichloride] |
| 92.6 | O=C(NNS(=O)(=O)C(F)(F)F)c1ccc[n+](CC(=O)c2cccs2)c1 [Compound 50, 1-(2-thien-2'-yl-2-oxoethyl)-3-(trifluoromethanesulfonyl hydrazinocarbonyl) - pyridinium bromide] |

Same assay, conditions: Concentration 25 mM; 10µg/ml 16 weeks AGE-BSA, 37°C, 24 hours; read-out: % Breakage

| inhibition at 25000 µM [%] | SMILES |
| --- | --- |
| 41 | COCCOC(=O)c1ccc[n+](CC(=O)c2ccc(Cl)cc2Cl)c1 [Compound 4, 1-(2-(2',4'-dichlorophenyl)-2-oxoethyl)-3-(2(methoxy)ethyloxycarbonyl) pyridinium bromide] |
| 90 | O=C(C[n+]1cccc(C(=O)NCCOC(=O)c2ccccc2)c1)Nc1ccccc1 [Compound 5, 1-(2-phenylamino-2-oxoethyl)-3-((benzoyloxy)ethylaminocarbonyl) pyridinium chloride] |

Same assay, conditions: read-out: % Breakage

| SMILES | inhibition at 5000 µM [%] | inhibition at 10000 µM [%] | inhibition at 2500 µM [%] | inhibition at 20000 µM [%] |
| --- | --- | --- | --- | --- |
| COCCNC(=O)c1ccc[n+](CC(=O)c2ccc(Cl)cc2Cl)c1 [Compound 20, 1-(2',4'-dichloro-phenyl-2-oxoethyl)-3-(2-methoxyethylaminocarbonyl)-pyridinium bromide] | 17.7 |  |  |  |
| COCCNC(=O)c1ccc[n+](CC(=O)NC2CC2)c1 [Compound 22, 1-(2-cyclopropylamino-2-oxoethyl)-3-(2-methoxyethylaminocarbonyl)-pyridinium chloride] |  | 12.4 |  |  |
| CC(C)NC(=O)C[n+]1cccc(C(=O)NNS(C)(=O)=O)c1 [Compound 25, 1-(2-isopropylamino-2-oxoethyl)-3-(2-methylsulfonylhydrazinocarbonyl) -pyridinium chloride] |  | 10.8 |  |  |
| CS(=O)(=O)NNC(=O)c1ccc[n+](CC(=O)N2CCC(Cc3ccccc3)CC2)c1 [Compound 33, 1-(2-(4-benzylpiperidin-1-yl)-2-oxoethyl)-3-(methanesulfonyl hydrazinocarbonyl) pyridinium chloride] |  | 20.9 |  |  |
| CCOC(=O)C1CCCN1C(=O)C[n+]1cccc(C(=O)NNS(C)(=O)=O)c1 (stereo not drawn) [Compound 34, 1-(2-(2-ethoxycarbonylpyrrolidin-1-yl)-2-oxoethyl)-3-(methanesulfonyl hydrazinocarbonyl) pyridinium chloride] |  | 25.3 |  |  |
| CS(=O)(=O)NNC(=O)c1ccc[n+](CC(=O)c2ccc(Cl)s2)c1 [Compound 37, 1-(2-(5-chloro-thien-2-yl)-2-oxoethyl)-3-(methanesulfonyl hydrazinocarbonyl) pyridinium bromide] |  | 40.9 |  |  |
| O=C(NNC(=O)c1ccc[n+](CC(=O)c2cc([N+](=O)[O-])cs2)c1)c1ccc[n+](CC(=O)c2cc([N+](=O)[O-])cs2)c1 [Compound 38, N,N'-bis[3-carbonyl-1-(2-(4-nitro-thien-2-yl)-2-oxoethyl)pyridinium] hydrazine dichloride] |  | 75.9 |  |  |
| CCOC(=O)C1CSCN1C(=O)C[n+]1cccc(C(=O)NNS(C)(=O)=O)c1 (stereo not drawn) [Compound 43, 1-(2-(4-carbethoxy-thiazolidin-3-yl)-2oxoethyl)-3-(methanesulfonyl hydrazinocarbonyl) pyridinium chloride] |  | 25.1 |  |  |
| Cc1ccc(C(=O)C[n+]2cccc(C(=O)NNS(C)(=O)=O)c2)s1 [Compound 45, 1-(2-(5-methyl-thien-2-yl)-2-oxoethyl)-3-(methanesulfonyl hydrazinocarbonyl) pyridinium chloride] |  | 25.2 |  |  |
| CS(=O)(=O)NNC(=O)c1ccc[n+](CC(=O)c2cc([N+](=O)[O-])cs2)c1 [Compound 46, 1-(2-(4-nitro-thien-2-yl)-2-oxoethyl)-3-(methanesulfonyl hydrazinocarbonyl) pyridinium bromide] |  | 60.9 |  |  |
| O=C(C[n+]1cccc(C(=O)NNc2ccccc2)c1)Nc1ccccc1 [Compound 47, 1-(2-phenylamino-2-oxoethyl)-3-(phenyl hydrazinocarbonyl) pyridinium chloride] |  |  | 68.3 |  |
| O=C(C[n+]1ccc(C(=O)NCCOC(=O)c2ccccc2)cc1)Nc1ccccc1 [Compound 48, 1-(2-phenylamino-2-oxoethyl)-4-[2-(benzoyloxy)ethylaminocarbonyl] pyridinium chloride] |  | 19.1 |  |  |
| O=C(C[n+]1ccsc1)c1ccccc1 [PTB, N- phenacyl thiazolium bromide, reference compound] |  | 27 |  | 47 |
